Numbers after ± are expanded uncertainties.
What was measured:
[1] = 298.15 K; 101.33 kPa; Liquid; Vibrating tube method
[2] = refractive index (Na D-line) (dimensionless); settings: 298.15 K; 101.33 kPa; Liquid; Standard Abbe refractometry

| Compound | mass density [1] [kg/m3] | refractive index [2] |
| --- | --- | --- |
| CC(=O)CC(C)C [4-methylpentan-2-one] | 795.94 ± 0.14 | 1.3936 ± 0.0005 |
| CC(C)O [propan-2-ol] | 782.7 ± 0.15 | 1.3754 ± 0.0005 |
| O [water] |  | 1.3325 ± 0.0005 |
| CCCO [propan-1-ol] | 799.62 ± 0.11 | 1.3836 ± 0.0005 |

— the NIST ThermoML archive (doi:10.1016/j.fluid.2013.10.034)
